Measured values from PMC9499506, “TNF-α and IL-1β Modulate Blood-Brain Barrier Permeability and Decrease Amyloid-β Peptide Efflux in a Human Blood-Brain Barrier Model” (International Journal of Molecular Sciences, 2022).

What was measured:
BLECs [1] = assay: Western immunoblotting of proinflammatory markers (ICAM-1, VCAM-1, NLRP3) in BLECs; type: cell-based, human; conditions: for protein levels of ICAM-1, VCAM-1 and NLRP3 versus untreated BLECs: 10 ng·mL^−1, 24 h
Experimental: Next, as the inflammatory response of endothelial cells is largely dependent on appropriate upregulation of adhesion molecules, such as intercellular adhesion molecule-1 (ICAM-1) and vascular cell adhesion molecule-1 (VCAM-1), and the inflammasome molecule NOD-like receptor family, pyrin domain containing 3 (NLRP3), we evaluated, by Western immunoblotting, the ability of BLECs to respond to these pro-inflammatory stimuli.
(§1) Each condition was studied in triplicate.
After 24 h of treatments with or without proinflammatory cytokines, BLECs were washed twice with cold RH buffer and scraped with 70 μL of RIPA 1X lysis buffer (10 mM Tris-Cl (pH 8.0), 1 mM EDTA, 0.5 mM EGTA, 1% Triton X-100, 0.1% sodium deoxycholate, 0.1% SDS, 140 mM NaCl) (Merck Millipore, Burlington, MA, USA) or UT4 lysis buffer (7M Urea, 2M Thiourea, 4% CHAPS), both supplemented with a cocktail of phosphatase and protease inhibitors (1% protease inhibitors cocktail #P8340; 1% phosphatase inhibitors cocktail 1 P2850; 1% phosphatase inhibitors cocktail 2 #P5726; 1% protease inhibitors cocktail #P8340) purchased from Sigma-Aldrich (Lyon, France). Then, a centrifugation at 10,000 rpm for 10 min at 4 °C was achieved to save the supernatant of the lysate. This was later sonicated two times for 5 s on ice. The concentration of the protein lysate was quantified using the Bradford method (#5000006; rad, Munich, Germany). The protein samples were then stored at −20 °C.
20 μg of total protein was mixed with Laemmli 4X (#1610747; Biorad, Munich, Germany) supplemented with β-mercaptoethanol (Sigma-Aldrich, Germany). Depending on the protein target, details of the denaturation and reduction steps of the protein extract are described in Table 3. Then, the protein mixes were electrophoresed using Criterion™ TGX™ (Tris-Glycine eXtended) precast gels (Biorad, Munich, Germany) and subsequently electrotransferred to nitro-cellulose membranes (GE Healthcare, Munich, Germany). Once the previous step was completed, Tris-buffered saline 0.1% Tween 20 (TBST; 20 mM Tris-HCl, pH 8.0, 500 mM NaCl, 0.1% Tween 20) supplemented with 5% skimmed milk was added on membrane to block nonspecific binding sites for 1 h under agitation at RT. Membranes were incubated in the appropriate primary antibodies (as described in Table 3) and incubated at 4 °C overnight, except β-actin (20 min at RT).
The following morning, the membranes were rinsed with TBST three times for 5 min each under agitation, and then incubated with the horseradish peroxidase-conjugated secondary antibody anti-rabbit (1:8000, Dako/Agilent Technologies, Inc., Santa Clara, CA, USA) or secondary antibody anti-mouse (1:5000, Dako/Agilent Technologies, Inc., Santa Clara, CA, USA) for 1 h at RT. […] Quantification of the relative densities of bands was performed with TotalLab TL 100 1D Gel Analysis software (Nonlinear Dynamics, Newcastle, UK). The protein expression normalization was conducted with anti-β-actin. Studies were performed with at least three independent experiments, with at least two Western immunoblottings per experiment.

BLECs [2] = assay: RT-qPCR of junctional protein mRNA in BLECs; type: cell-based, human; conditions: normalized to cyclophilin A, 10 ng·mL^−1, 24 h; for VE-cadherin mRNA level versus control: ΔΔCt
Experimental: as §1
BLECs were washed twice with cold RH buffer, then lysed using RLT lysis buffer (Qiagen, Les Ulis, France). The cell lysates were extracted according to the manufacturer’s instructions “Qiagen RNeasy Mini kit”. Briefly, a volume of cell lysates was mixed with a volume of 70% (v/v) ethanol and placed in a column (Rneasy Mini kit, Qiagen, Les Ulis, France). A first centrifugation was performed to adsorb the RNAs to the column. A series of two rinses with buffer RW1 and a centrifugation (10.000 rpm, 30 s) were performed. Samples were treated with DNase in its RDD buffer for 20 min. Then, another succession of rinses (one with buffer RW1 and two with buffer RPE) and centrifugation (10.000 rpm, 30 s) were performed. Finally, water (RNAse Free) was added to the column to elute the RNAs by centrifugation (13.000 rpm, 2 min at 20 °C). The amount of extracted mRNAs was assayed by spectrophotometry (Synergy H1, Biotek, Colmar, France). Absorbances at 280 nm (proteins) and 260 nm (nucleic acids) were performed. The mRNA concentration was determined from the Beer-Lambert law and the mRNA purity of the sample was assessed with the Absorbance 260 nm/Absorbance 280 nm ratio. This ratio must be close to 2.1 to consider the sample to be with high purity. The mRNA samples were then stored at −80 °C.
Reverse transcription (RT) was performed on the samples containing the extracted mRNAs to obtain cDNAs. A total of 250 ng of mRNA was reverse-transcribed using iScriptTM reverse Transcription Supermix 5X (Biorad, Munich, Germany), containing reverse transcriptase, RNAse inhibitors, RNAse H, dNTPs (nucleoside triphosphates), oligonucleotides (dTs) (deoxy-thymine repeats) and random primers (hexamers of dNTPs randomly binding to mRNAs) and MgCl2). To each microtube, a volume of water (RNAse free) was added to obtain a final volume of 20 µL, then a reverse transcription cycle was performed in the thermal cycler (MJ Research): 5 min at 25 °C (hybridization), 30 min at 42 °C (reverse transcription) and 5 min at 85 °C (reverse transcription inactivation). The cDNA samples were then stored at −20 °C. For each reverse transcription and for each condition, an internal control was performed by adding iScriptTM No-RT control Supermix 5X (Biorad, Munich, Germany), a solution without the reverse transcriptase enzyme (NRT), instead of iScriptTM reverse Transcription Supermix 5X.
The qPCR was performed on a 96-well plate where each sample was deposited in triplicate. To perform qPCR, human-specific primer pairs were drawn for each gene of interest (Table 2).
An efficiency test and a melting curve were performed for each pair of primers used using the CFX Manager software (Biorad, Munich, Germany) allowing for the specificity and efficiency of the primers to be checked. A qPCR of the cDNAs obtained by RT-PCR was performed using the specific primers and a SsoFast^TM Evagreen SuperMix (Biorad, Munich, Germany) containing DNA polymerase, its cofactors, dNTPs and Evagreen® (a fluorochrome that binds to DNA during elongation). The amplification was carried out for 40 cycles with a hybridization temperature of 60 °C. The reaction was performed in a CFX96 Real-Time System thermal cycler (Biorad, Munich, Germany). Gene expression levels were assessed using the ΔΔCt method and normalized to a reference gene, cyclophilin A. The data were then plotted as a percentage against the control condition. Two controls were performed per primer pair: an NRT and a primer hybridization control (NTC), where the sample containing the cDNAs is replaced with water.

[3] = both cytokines 10 ng·mL^−1, 24 h, normalized to β-actin

Substance: interleukin-1β [IL-1β]
- protein levels of ICAM-1, VCAM-1 and NLRP3 versus untreated BLECs (BLECs [1]): significantly higher
- decrease of ZO-1 mRNA level compared to control (BLECs [2]): 48.1%
- decrease of claudin-3 mRNA level compared to control (BLECs [2]): 81.3%
- decrease of occludin mRNA level compared to control (BLECs [2]): 64.0%
- decrease of tricellulin mRNA level compared to control (BLECs [2]): 62.8%
- increase of claudin-5 mRNA expression compared to control (BLECs [2]): 48.1%
- VE-cadherin mRNA level versus control (BLECs [2]): lower

Substance: tumor necrosis factor-α [TNF-α]
- protein levels of ICAM-1, VCAM-1 and NLRP3 versus untreated BLECs (BLECs [1]): significantly higher
- ICAM-1 protein level higher after TNF-α compared to IL-1β (BLECs [1]; [3]): 22.2%
- NLRP3 protein level higher after TNF-α compared to IL-1β (BLECs [1]; [3]): 478.4%
- VCAM-1 protein level higher after TNF-α compared to IL-1β (BLECs [1]; [3]): 230.6%
- decrease of claudin-3 mRNA level compared to control (BLECs [2]): 61.8%
- decrease of occludin mRNA level compared to control (BLECs [2]): 66.3%
- decrease of tricellulin mRNA level compared to control (BLECs [2]): 68.1%
- increase of claudin-5 mRNA expression compared to control (BLECs [2]): 139.4%
- VE-cadherin mRNA level versus control (BLECs [2]): not significantly different
